The results in this text go back to patent US20090137580A1, “Fused Heterocyclic Derivatives and Use Thereof” (Takeda Pharmaceutical Company Limited, priority 2005, published 2009).

Experiment [1] concerns Human umbilical vein endothelial cells (HUVEC). The experiment in a line: Vascular endothelial cell growth inhibitory test. It counts as cell-based. The conditions noted are these: Homo sapiens, 120 h, VEGF 120 ng/mL, culture 5 days, XTT reagent. On the procedure:
Human umbilical vein endothelial cells (HUVEC, purchased from KURABO) were cultured in a gas incubator (37° C., CO2 5%) in a vascular endothelial cell medium (Invitrogen) containing 5% fetal calf serum and a basic fibroblast growth factor (2.5 ng/mL). To be specific, HUVEC suspended in the aforementioned vascular endothelial cell medium (Invitrogen) containing 5% fetal calf serum were seeded into a 96 well flat-bottom plate (50 μL, 3000 cells each well). After culturing overnight, various concentrations of test substance and the final concentration (120 ng/mL) of vascular endothelial growth factor (VEGF) were dissolved in a vascular endothelial cell medium (Invitrogen) containing 5% fetal calf serum and added to each well (50 μL). After culturing for 5 days, an XTT reagent (Wako Pure Chemical Industries, Ltd.) was added to each well (10 μL), and reacted in a gas incubator (37° C., CO2 5%) for 2-3 hr. The absorbance at 450 nm was measured by a microtiter plate reader, and the cell growth inhibitory activity was determined.

In experiment [2] the target is T1, PDGFR Alpha Receptor Kinase (PDGFRalpha) (Homo sapiens, UniProt P16234).
T1 construct: PDGFRalpha intracellular domain protein (UPSTATE); purchased UPSTATE
The experiment in a line: Determination of PDGFR alpha receptor kinase (PDGFRalpha) inhibitory activity (alpha screen). It counts as biochemical. The conditions noted are these: PDGFRalpha intracellular domain protein, 25 μM ATP buffer; read-out: IC50 value (PDGFRalpha kinase inhibition). How it is done: The test compound dissolved in dimethyl sulfoxide (DMSO) was diluted with a buffer (50 mM Tris-HCl, pH 7.5, 5 mM MgCl2, 5 mM MnCl2, 2 mM dithiothreitol, 0.01% Tween-20).
Acceptor beads: PerkinElmer for alpha screen assay) was added to quench the reaction. The reaction solution was stood at 25° C. for 16 hr, and the count was measured using a plate reader·Fusion™ (manufactured by PerkinElmer). The kinase inhibitory rate (%) of the test compound was calculated by the following formula.
(§1) Inhibitory rate(%)=(1−(count of test compound−blank)÷(control−blank))×100
(§2) wherein the count of the solution reacted without addition of the compound is “control” and the count of the solution without addition of the compound and ATP is “blank”.

The target of experiment [3] is T2, TIE2 Receptor Kinase (TIE2) (Homo sapiens, UniProt Q02763).
T2 construct: TIE2 intracellular domain protein (UPSTATE); purchased UPSTATE
The experiment in a line: Determination of TIE2 receptor kinase (TIE2) inhibitory activity (alpha screen). It counts as biochemical. The conditions noted are these: TIE2 intracellular domain protein, 5 μM ATP buffer; read-out: IC50 value (TIE2 kinase inhibition). How it is done:
The test compound dissolved in dimethyl sulfoxide (DMSO) was diluted with a buffer (50 mM Tris-HCl, pH 7.5, 5 mM MgCl2, 5 mM MnCl2, 2 mM dithiothreitol, 0.01% Tween-20). A buffer (10 μl) containing 50 ng/ml TIE2 intracellular domain protein (UPSTATE) and 250 ng/ml biotin-labeled polypeptide biotinyl-poly-Glu:Tyr (4:1) (CIS Bio International) was added to the compound solution (5 μl). At 5 min after mixing a kinase enzyme, the compound and a biotin-labeled polypeptide, a buffer (10 μl) containing 5 μM ATP was added to the obtained mixture, the mixture was allowed to react at 25° C. for 10 min. Then, 25 μl of a stop solution (100 mM EDTA·2 sodium salt, 62.5 mM HEPES buffer (pH 7.4), 250 mM NaCl, 0.1% bovine serum albumin, 10 μg/ml Streptavidin Donor beads: PerkinElmer for alpha screen assay, 10 μg/ml Anti-phosphotyrosine (P-Tyr-66) Acceptor beads: PerkinElmer for alpha screen assay) was added to quench the reaction. The reaction solution was stood at 25° C. for 16 hr, and the count was measured using a plate reader·Fusion™ (manufactured by PerkinElmer). The kinase inhibitory rate (%) of the test compound was calculated by the following formula.
as §1, §2
Prism (Graphpad Software) according to the nonlinear-regression sigmoidal dose-response (variable slope) analysis method.

T2 sequence (Q02763 770-1124 limits assumed): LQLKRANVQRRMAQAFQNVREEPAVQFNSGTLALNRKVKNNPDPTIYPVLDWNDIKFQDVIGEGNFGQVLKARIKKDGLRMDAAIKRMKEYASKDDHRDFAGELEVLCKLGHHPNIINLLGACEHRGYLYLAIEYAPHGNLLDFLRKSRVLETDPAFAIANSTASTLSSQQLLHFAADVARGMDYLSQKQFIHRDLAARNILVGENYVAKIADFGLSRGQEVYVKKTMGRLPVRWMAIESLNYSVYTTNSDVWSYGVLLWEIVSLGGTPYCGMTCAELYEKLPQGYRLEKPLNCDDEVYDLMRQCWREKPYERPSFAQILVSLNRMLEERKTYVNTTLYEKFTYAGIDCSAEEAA
T1 sequence (P16234 550-1089 limits assumed): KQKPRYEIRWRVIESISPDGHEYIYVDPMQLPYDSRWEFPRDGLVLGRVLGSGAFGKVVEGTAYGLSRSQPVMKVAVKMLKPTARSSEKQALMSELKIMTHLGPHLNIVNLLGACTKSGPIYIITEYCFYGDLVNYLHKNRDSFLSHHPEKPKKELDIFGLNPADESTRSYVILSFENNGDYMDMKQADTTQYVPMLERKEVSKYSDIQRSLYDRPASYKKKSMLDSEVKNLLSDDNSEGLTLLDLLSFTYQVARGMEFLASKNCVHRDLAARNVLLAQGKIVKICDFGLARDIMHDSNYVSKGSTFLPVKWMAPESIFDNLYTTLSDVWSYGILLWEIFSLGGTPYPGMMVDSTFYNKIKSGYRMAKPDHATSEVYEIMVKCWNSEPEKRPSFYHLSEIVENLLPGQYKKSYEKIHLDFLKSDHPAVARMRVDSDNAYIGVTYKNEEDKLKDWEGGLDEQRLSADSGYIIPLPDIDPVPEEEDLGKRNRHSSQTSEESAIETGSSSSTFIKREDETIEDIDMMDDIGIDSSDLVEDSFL

For orientation: IC50 means the concentration that gives 50% inhibition. As to `Cn1ccc2ncnc(Oc3ccc(NC(=O)Nc4cccc(C(F)(F)F)c4)c(Cl)c3)c21` [Example 15, N-{2-chloro-4-[(5-methyl-5H-pyrrolo[3,2-d]pyrimidin-4-yl)oxy]phenyl}-N′-[3-(trifluoromethyl)phenyl]urea], the IC50 in experiment [1] is 8.2 nM; in experiment [2] it was no more than 500 nM; in experiment [3], no more than 5 nM.
For the compound `Cn1ccc2ncnc(Oc3ccc(NC(=O)Nc4cccc(OC(F)(F)F)c4)c(Cl)c3)c21` [Example 20, N-{2-chloro-4-[(5-methyl-5H-pyrrolo[3,2-d]pyrimidin-4-yl)oxy]phenyl}-N′-[3-(trifluoromethoxy)phenyl]urea], the values for the IC50 in experiment [1], in experiment [2] and in experiment [3] were 6.6 nM, no more than 500 nM and no more than 5 nM, respectively.
As to `Cc1cc(Oc2ncnc3ccn(C)c23)ccc1NC(=O)Nc1cccc(C(F)(F)F)c1` [Example 41, N-{2-methyl-4-[(5-methyl-5H-pyrrolo[3,2-d]pyrimidin-4-yl)oxy]phenyl}-N′-[3-(trifluoromethyl)phenyl]urea], the IC50 in experiment [1] was 19 nM; in experiment [2], no more than 500 nM; in experiment [3], no more than 5 nM.
For `CCn1ccc2ncnc(Oc3ccc(NC(=O)Nc4cccc(C(F)(F)F)c4)c(Cl)c3)c21` [Example 47, N-{2-chloro-4-[(5-ethyl-5H-pyrrolo[3,2-d]pyrimidin-4-yl)oxy]phenyl}-N′-[3-(trifluoromethyl)phenyl]urea], the IC50 in experiment [1] was 11 nM; in experiment [2], no more than 500 nM; in experiment [3], no more than 5 nM.
